We go through four compounds from patent EP0119449A1, “Aminopyrazoline derivatives” (THE WELLCOME FOUNDATION LIMITED, priority 1983, dated 1984).

Data set [1] has as its system Prostaglandin E2 concentrations in sponge exudates. Put plainly: Prostaglandin synthesis in carrageenin sponge inflammatory exudate. The data set is classed as in vivo. To be noted: Rattus norvegicus, po; male rats, sponges impregnated with 2% carrageenin, exudates collected 24 hours after implantation; read-out: ED50 (mg/kg p.o.) Prostaglandin Production (rat). The method, then:
(§1) The compound of Example 1 was subjected to the following tests. Results are given in Table II as ED50 mg/kg upon oral administration. Results are also provided by way of comparison for the compound 3-methylamino-1-(3-trifluoromethylphenyl)-2-pyrazoline (Compound A) which is disclosed in European Specification 55 418.
(§2) Inflammatory exudates were collected 24 hours after the subcutaneous implantation in male rats (180-220g) of sterile polyester sponges impregnated with 2% carrageenin. Prostaglandin E2 concentrations in sponge exudates were measured by bioassay and total leucocyte numbers were estimated using counting chambers and phase contrast microscopy. Drugs were administered orally in aqueous solution to groups of five animals at the time of sponge implantation, 5-8 hours later and 3 hours before sponge removal. Results are expressed as a percentage of control values obtained from similar groups of animals receiving vehicle alone. ED50 values were calculated for active compounds. The full dose-response data for lead compounds were subjected to regression analysis and ED50 values with 95% confidence limits have been obtained.

A further data set relates to total leucocyte numbers. In words: Leucocyte accumulation in carrageenin sponge inflammatory exudate. The data set is classed as in vivo. The conditions noted are these: Rattus norvegicus, po, male rats, sponges impregnated with 2% carrageenin, exudates collected 24 hours after implantation, read-out: ED50 (mg/kg p.o.) Leucocyte Migration (rat). The protocol:
as §1, §2

The test system of a further data set is Carrageenin Oedema. Put plainly: Carrageenin-induced hind paw oedema. The data set is classed as in vivo. The conditions noted are these: Rattus norvegicus, po; female rats, sub-plantar 2% carrageenin, swelling measured 1-4 hours after injection. The method, then: as §1
Oedema was induced by the sub-plantar injection of 2% carrageenin (0.1 ml) in the hind paws of female rats (100-i30g). Swelling was measured 1-4 hours following carrageenin injection using a micrometer gauge. Drugs in aqueous solution were administered orally to groups of five rats at the time of carrageenin injection. Mean swelling was expressed as a percentage of control values obtained from similar groups of animals receiving vehicle alone.
(In general: Carrageenan injected into the paw causes an acute inflammation.)

A further data set deals with PBQ Writhing. In words: Phenylbenzoquinone (PBQ) induced writhing (pain). The data set is classed as in vivo. The conditions noted are these: Mus musculus, po; p.o. 1 hour before PBQ 2.5 mg/kg i.p.; female mice. The protocol:
as §1
Writhing was induced in groups of 5 female mice (20-25g) following the intraperitoneal injection of phenylbenzoquinone (PBQ; 2.5 mg/kg). Anti-nociceptive effects of drugs were assessed by observing the reduction in writhing responses 10-12½ min after PBQ injection. Drugs were administered orally in aqueous solution 1 hour before PBQ injection and drug effects were expressed as a percentage of control values obtained from animals receiving vehicle alone.

Another data set deals with Cyclooxygenase. Put plainly: Enzyme assay, inhibition of cyclooxygenase (method closely based on Borgeat et al). The data set is classed as biochemical.
A short description of the next data set: Toxicity: ulcerogenicity. In kind it is in vivo. The conditions noted are these: rat, doses in the range 50-100 mg/kg.

The structures appear in SMILES notation. Where a name gives a salt, the structure may show the parent alone. Some results are limits rather than exact numbers.

In the case of `CNC1=NN(c2cccc(C(F)(F)F)c2)CC1` [Compound A, 3-methylamino-1-(3-trifluoromethylphenyl)-2-pyrazoline, reference compound], the ED50 in data set [1] was determined as 20 mg/kg; in the data set with total leucocyte numbers, 20 mg/kg; with Carrageenin Oedema, 26 mg/kg; in the data set on PBQ Writhing it was 20 mg/kg.

In general, IC50 refers to the midpoint of a concentration-inhibition curve. Read a high IC50 as lower potency. Take `CSc1cccc(N2CCC(N)=N2)c1` [Example 1, 3-amino-1-(3-methylthiophenyl)-2-pyrazoline]: the IC50 against Cyclooxygenase was 4.7 µM. Besides, the ED50 in data set [1] came out at 14 mg/kg; in the data set with total leucocyte numbers, 6.5 mg/kg; with Carrageenin Oedema, 20 mg/kg; in the data set with PBQ Writhing, 15 mg/kg. The ulcerogenic entry in “Toxicity: ulcerogenicity” is “not to be ulcerogenic”.

For the compound `C#CCNC1=NN(c2cccc(SC)c2)CC1` [Example 7, 1-(3-Methylthiophenyl)-3-(2-propynylamino)-2-pyrazoline hydrochloride], the IC50 against Cyclooxygenase is over 1 µM.

Compound `CNC1=NN(c2cccc(SC)c2)CC1` [Example 3, 3-methylamino-1-(3-methylthiophenyl)-2-pyrazoline hydrobromide] yielded an IC50 at Cyclooxygenase of 10 µM. This lies in the double-digit micromolar range.
